US11945826B2, “Hydroxypyridoxazepines as NRF2 activators” (GLAXOSMITHKLINE INTELLECTUAL PROPERTY DEVELOPMENT LIMITED, priority 2019, dated 2024)

Legend:
[1] = test system: Nrf2 (NQO1 activity in BEAS-2B cells); experiment: BEAS-2B NQO1 MTT Assay; type: cell-based; settings: Homo sapiens, 48 hours, NQO1 specific activity induction, read-out: EC50
Description: NAD(P)H:quinone oxidoreductase 1 (NQO1), also called DT diaphorase, is a homodimeric FAD-containing enzyme that catalyzes obligatory NAD(P)H-dependent two-electron reductions of quinones and protects cells against the toxic and neoplastic effects of free radicals and reactive oxygen species arising from one-electron reductions. The transcription of NQO1 is finely regulated by Nrf2, and thus NQO1 activity is a good marker for Nrf2 activation. On day one, frozen BEAS-2B cells (ATCC) were thawed in a water bath, counted, and re-suspended at a concentration of 250,000 cells/mL. Fifty microliters of cells were plated in 384 well black clear-bottomed plates. Plates were incubated at 37° C., 5% CO2 overnight. On day two, plates were centrifuged and 50 nL of compound or controls were added to the cells. Plates were then incubated at 37° C., 5% CO2 for 48 hours. On day four, medium was aspirated from the plate and crude cell lysates were made by adding 13 μL of 1× Cell Signalling Technologies lysis buffer with 1 Complete, Mini, EDTA-free Protease Inhibitor Tablet (Roche) for each 10 mL of lysis buffer. After lysis plates were incubated for 20 minutes at room temperature. Two microliters of lysate were removed for use in Cell Titer Glo assay (Promega) and MTT cocktail was prepared (Prochaska et. al. 1998) for measurement of NQO1 activity. Fifty microliters of MTT cocktail was added to each well, plate was centrifuged, and analyzed on an Envision plate reader (Perkin Elmer) using Absorbance 570 nm label for 30 minutes. Product formation was measured kinetically and the pEC50 of NQO1 specific activity induction was calculated by plotting the change in absorbance (Delta OD/min) versus the log of compound concentration followed by 3-parameter fitting.
EC50s<1 nM (+++++), EC50s 1 nM-10 nM (++++), EC50s 10 nM-100 nM (+++), EC50s 100 nM-1 μM (++), EC50s 1 μM-10 μM (+).

murine TAC model = experiment: Mouse Transverse Aortic Constriction (TAC) Left Ventricular Pressure Overload Model; type: in vivo, C57BLK/6J mice; settings: 10-week mouse TAC, Example 1 at 1, 3, 10 mg/kg/d, Example B at 100 mg/kg/d
Description: Male C57BLK/6J mice (10-12 weeks old) were individually housed and acclimated to a standard powdered rodent diet for 1-3 days. Water was offered ad libitum throughout the study. Mice were initially anesthetized in a chamber using an 3% isoflurane with oxygen (1.0 L/min), and then maintained at 1.5% via nose cone (without intubation). A small incision (˜5 mm) was made just left of midline and just above the rib cage at the level of the suprasternal notch. The muscle tissue was retracted to expose the area above the pleural cavity. The lobes of the thymus were separated and retracted to expose the aortic arch. Fine surgical forceps with blunted tips were used to expose a region above and below the aorta. A micro blunt hook tied with 7-0 silk surgical suture was looped under the aorta and the suture pulled through. The suture was tied-off against a small piece of blunted 27 G needle and the needle was then removed creating the aortic constriction (a 60-70% constriction of the lumen). The incision was closed using 6-0 silk suture for the muscle layer, then the skin with Medbond. The sham procedure was identical without ligation of aorta. Depending on the individual study designs, drug administration began either on the day of surgery, or 1-2 weeks after surgery (detailed in figure legends) and continued until the end of study. Compounds were administered in the mouse chow unless otherwise noted in FIG. 12 legends. TAC study duration was either 6 weeks or 10 weeks in duration. All TAC study endpoints were collected at the end of study. Following heart dissections, samples were either snap frozen in liquid nitrogen and stored at −80° C. or placed in 10% neutral buffered formalin until analysis.
Echocardiography: For mouse TAC studies, echocardiography was performed on a Vevo 2100 high frequency imaging system. Animals were anesthetized with 2-3% isoflurane and sedation maintained with 1% isoflurane with animals on a heating pad. B-mode imaging of three cardiac cycles was used to assess ejection fraction (EF), end diastolic volume (EDV), end systolic volume (ESV), LV mass, and heart rate. ECG was used to measure heart rate during the echocardiography procedure.
NADPH dehydrogenase [quinone]-1 (NQO1) activity: Left ventricular (LV) tissue NQO1 activity was determined using an NQO1 assay kit per manufacturer's protocol (Abcam, Cambridge MA)
The KEAP1 blockers/Nrf2 activators, (R)-3-(1,4-dimethyl-1H-benzo[d][1,2,3]triazol-5-yl)-3-(3-(((R)-2-ethyl-7-hydroxy-2,3-dihydropyrido[2,3-f][1,4]oxazepin-4(5H)-yl)methyl)-4-methylphenyl)propanoic acid, hydrochloride, or a tautomer thereof (Example 1) (in dose-response) and (S)-3-(1,4-dimethyl-1H-benzo[d][1,2,3]triazol-5-yl)-3-(3-(((R)-2-ethyl-2,3-dihydropyrido[3,4-f][1,4]oxazepin-4(5H)-yl)methyl)-4-methylphenyl)-2,2-dimethylpropanoic acid (Example B) were evaluated in a 10-week mouse TAC model of severe hemodynamic stress.
FIG. 12 depicts the effect of the KEAP1-kelch domain blockers/Nrf2 activators (R)-3-(1,4-dimethyl-1H-benzo[d][1,2,3]triazol-5-yl)-3-(3-(((R)-2-ethyl-7-hydroxy-2,3-dihydropyrido[2,3-f][1,4]oxazepin-4(5H)-yl)methyl)-4-methylphenyl)propanoic acid, hydrochloride, or a tautomer thereof (Compound of Example 1) and (S)-3-(1,4-dimethyl-1H-benzo[d][1,2,3]triazol-5-yl)-3-(3-(((R)-2-ethyl-2,3-dihydropyrido[3,4-f][1,4]oxazepin-4(5H)-yl)methyl)-4-methylphenyl)-2,2-dimethylpropanoic acid (Compound B) on cardiac function, remodeling, and NQO1 enzyme activity in the murine 10-week TAC model. All compounds were dosed in chow beginning 2-weeks after TAC. […]

CC[C@H]1CN(Cc2cc([C@H](CC(=O)O)c3ccc4c(nnn4C)c3C)ccc2C)Cc2nc(O)ccc2O1 [Example 12, (S)-3-(1,4-dimethyl-1H-benzo[d][1,2,3]triazol-5-yl)-3-(3-(((S)-2-ethyl-7-hydroxy-2,3-dihydropyrido[2,3-f][1,4]oxazepin-4(5H)-yl)methyl)-4-methylphenyl)propanoic acid]
EC50 [1]: 1000 to 10000 nM

Cc1ccc([C@H](CC(=O)O)c2ccc3c(nnn3C)c2C)cc1CN1Cc2nc(O)ccc2O[C@@H](C(F)(F)F)C1 [Example 28, (S)-3-(1,4-dimethyl-1H-benzo[d][1,2,3]triazol-5-yl)-3-(3-(((R)-7-hydroxy-2-(trifluoromethyl)-2,3-dihydropyrido[2,3-f][1,4]oxazepin-4(5H)-yl)methyl)-4-methylphenyl)propanoic acid]
EC50 [1]: 1000 to 10000 nM

Cc1ccc([C@@H](c2ccc3c(nnn3C)c2C)C(C)(C)C(=O)O)cc1CN1Cc2nc(O)ccc2O[C@@H](C)C1 [Example 23, (S)-3-(1,4-dimethyl-1H-benzo[d][1,2,3]triazol-5-yl)-3-(3-(((S)-7-hydroxy-2-methyl-2,3-dihydropyrido[2,3-f][1,4]oxazepin-4(5H)-yl)methyl)-4-methylphenyl)-2,2-dimethylpropanoic acid]
EC50 [1]: 10 to 100 nM

Cc1ccc([C@@H](CC(=O)O)c2ccc3c(nnn3C)c2C)cc1CN1Cc2nc(O)ccc2O[C@@H](C(C)C)C1 [Example 2, (R)-3-(1,4-dimethyl-1H-benzo[d][1,2,3]triazol-5-yl)-3-(3-(((S)-7-hydroxy-2-isopropyl-2,3-dihydropyrido[2,3-f][1,4]oxazepin-4(5H)-yl)methyl)-4-methylphenyl)propanoic acid]
EC50 [1]: 100 to 1000 nM

Cc1ccc([C@@H](CC(=O)O)c2ccc3c(nnn3C)c2C)cc1CN1Cc2nc(O)ccc2O[C@@H](C(F)(F)F)C1 [Example 20, (R)-3-(1,4-dimethyl-1H-benzo[d][1,2,3]triazol-5-yl)-3-(3-(((R)-7-hydroxy-2-(trifluoromethyl)-2,3-dihydropyrido[2,3-f][1,4]oxazepin-4(5H)-yl)methyl)-4-methylphenyl)propanoic acid]
EC50 [1]: 1000 to 10000 nM

CC[C@@H]1CN(Cc2cc([C@@H](c3ccc4c(nnn4C)c3C)C(C)(C)C(=O)O)ccc2C)Cc2cnccc2O1 [Example B, (S)-3-(1,4-dimethyl-1H-benzo[d][1,2,3]triazol-5-yl)-3-(3-(((R)-2-ethyl-2,3-dihydropyrido[3,4-f][1,4]oxazepin-4(5H)-yl)methyl)-4-methylphenyl)-2,2-dimethylpropanoic acid, reference compound]
cardiac function as assessed by ejection fraction (murine TAC model; daily in chow for eight weeks from 2 weeks after TAC): full normalization of cardiac function | NAD(P)H quinone oxidoreductase 1 (NQO1) in the LV (murine TAC model; daily in chow for eight weeks): significant dose-related elevations | cardiac hypertrophy (left ventricular mass) (murine TAC model; daily in chow for eight weeks): did not influence cardiac hypertrophy | unloading the heart (blood pressure) or heart rate (murine TAC model; daily in chow for eight weeks): nor did the ejection fraction change occur by unloading the heart (i.e., lowering blood pressure) or increasing the heart rate

Cc1ccc([C@@H](CC(=O)O)c2ccc3c(nnn3C)c2C)cc1CN1Cc2nc(O)ccc2O[C@H](C(C)(C)C)C1 [Example 30, (R)-3-(3-(((R)-2-(tert-butyl)-7-hydroxy-2,3-dihydropyrido[2,3-f][1,4]oxazepin-4(5H)-yl)methyl)-4-methylphenyl)-3-(1,4-dimethyl-1H-benzo[d][1,2,3]triazol-5-yl)propanoic acid]
EC50 [1]: 10 to 100 nM

CC[C@@]1(C)CN(Cc2cc([C@@H](CC(=O)O)c3ccc4c(nnn4C)c3C)ccc2C)Cc2nc(O)ccc2O1 [Example 27, (R)-3-(1,4-dimethyl-1H-benzo[d][1,2,3]triazol-5-yl)-3-(3-(((S)-2-ethyl-7-hydroxy-2-methyl-2,3-dihydropyrido[2,3-f][1,4]oxazepin-4(5H)-yl)methyl)-4-methylphenyl)propanonic acid]
EC50 [1]: 10 to 100 nM
